Patent US4110327A, “2,3 Diketo-piperazinocarbonylamino alkanoic acids and derivatives” (Toyama Chemical Co., Ltd., priority 1974, dated 1978)
Converted amounts (≈) assume the structure as drawn.

How the values were obtained:
[1] = test system: Staphylococcus aureus 209p; assay: MIC against standard strain, plate method; assay type: cell-based; conditions: unit assumed
How it was run: (§1)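 Plate-method MIC. Medium: heart infusion agar, pH 7.4. Inoculum: 10^4 cells per plate (10^6 cells/ml).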

Escherichia coli NIHJ = assay: MIC against standard strain, plate method; assay type: cell-based; conditions: unit assumed
How it was run: as §1

Proteus vulgaris 3027 = assay: MIC against standard strain, plate method; assay type: cell-based; conditions: Proteus vulgaris 3027, standard strain; unit assumed
How it was run: as §1

Klebsiella pneumoniae [2] = assay: MIC against standard strain, plate method; assay type: cell-based; conditions: unit assumed
How it was run: as §1

[3] = test system: Pseudomonas aeruginosa I.F.O.; assay: MIC against standard strain, plate method; assay type: cell-based; conditions: unit assumed
How it was run: as §1

Pseudomonas aeruginosa = assay: MIC against clinical isolates; assay type: cell-based; conditions: unit assumed
Proteus vulgaris = assay: MIC against clinical isolates; assay type: cell-based; conditions: clinical isolate, unit assumed
Escherichia coli = assay: MIC against clinical isolates; assay type: cell-based; conditions: unit assumed
Proteus mirabilis = assay: MIC against clinical isolates; assay type: cell-based; conditions: clinical isolate, unit assumed
Staphylococcus aureus = assay: MIC against clinical isolates; assay type: cell-based; conditions: unit assumed
β-lactamase = assay: Resistant activity against β-lactamase, iodometric assay; assay type: biochemical, Pseudomonas aeruginosa GN 238; conditions: relative to Potassium Penicillin G = 100
Description: (3) Resistant activity against β-lactamase, Pseudomonas aergionan GN 238:
The resistant activity of each compound against β-lactamase was measured in the manner described below.
β-Lactamase was prepared from Pseudomonas aeruginosa GN 238. This microorganism was cultured in 100 ml of a medium containing 2 g of yeast extract, 10 g of polypeptone, 2 g of glucose, 7 g of disodium hydrogen phosphate, 2 g of potassium dihydrogen phosphate, 1.2 g of ammonium sulfate and 0.4 g of magnesium sulfate, per liter, in a 500-ml Erlenmeyer flask for 6 hrs. at 37° C with shaking. The resulting cells were collected by centrifugation (5,000 r.p.m. × 10 min.), washed three times with 0.1 M phosphate buffer (pH 7.0). Subsequently, the cells were subjected to sonication (20 KHz, 20 min.) and then centrifuged at 15,000 r.p.m. for 60 min. By using the supernatant of enzyme fluid, the resistance of each compound against β-lactamase was determined by the iodometric assay method. Each numeral shown in Table 7 is a relative activity value calculated by assuming as 100 the activity of the control Potassium Penicillin G.

Klebsiella pneumoniae [4] = assay: MIC against clinical isolates; assay type: cell-based; conditions: unit assumed
Proteus morganii = assay: MIC against clinical isolates; assay type: cell-based; conditions: clinical isolate, unit assumed
Proteus rettgeri = assay: MIC against clinical isolates; assay type: cell-based; conditions: clinical isolate, unit assumed
Salmonella typhi = assay: MIC against clinical isolates; assay type: cell-based; conditions: unit assumed
Shigella sonnei = assay: MIC against clinical isolates; assay type: cell-based; conditions: clinical isolate JS 11232; unit assumed
Description: (§2) The minimum inhibitory concentrations (MIC) was determined by the plate method disclosed in "Chemotherapy" (Japan), Vol. 16, (1968), pages 98 - 99. The culture medium used was a Heart infusion agar (pH 7.4). The number of the cells per plate used in the inoculum as 10^4 (10^6 cells/ml).
(§3) MIC was determined in the same manner as in the preceding paragraph (1).

Shigella flexneri = assay: MIC against clinical isolates; assay type: cell-based; conditions: unit assumed
Description: as §2, §3

Salmonella typhi-murium = assay: MIC against clinical isolates; assay type: cell-based; conditions: unit assumed
[5] = clinical isolate GN (number not given; Table 5-3)

Compound	MIC [1]	MIC (Proteus vulgaris 3027)	MIC [3]	MIC (Pseudomonas aeruginosa; clinical isolate GN 82)	MIC (Pseudomonas aeruginosa; clinical isolate GN 163)	MIC (Pseudomonas aeruginosa; clinical isolate GN 221)	MIC (Pseudomonas aeruginosa; clinical isolate GN 376)	MIC (Pseudomonas aeruginosa; clinical isolate GN 383)	MIC (Pseudomonas aeruginosa; clinical isolate GN 1035)	MIC (Pseudomonas aeruginosa; clinical isolate GN 1091)	MIC (Pseudomonas aeruginosa; clinical isolate GN 2565)	MIC (Pseudomonas aeruginosa; [5])	MIC (Pseudomonas aeruginosa; clinical isolate S-1)	MIC (Pseudomonas aeruginosa; clinical isolate S-2)	MIC (Pseudomonas aeruginosa; clinical isolate S-3)	MIC (Pseudomonas aeruginosa; clinical isolate S-4)	MIC (Proteus vulgaris)	MIC (Escherichia coli; clinical isolate GN 3465)	MIC (Escherichia coli; clinical isolate K-3)	MIC (Proteus mirabilis)	further results
CC1(C)S[C@@H]2[C@H](NC(=O)C(C(=O)O)c3ccccc3)C(=O)N2[C@H]1C(=O)O (some centres unmarked) [Sodium Carbenicillin, SodiumCarbenicillin, reference compound]	< 1.57 µg/mL	< 1.57 µg/mL	50 µg/mL	100 µg/mL	50 µg/mL	25 µg/mL	50 µg/mL	30 µg/mL	> 200 µg/mL	100 µg/mL	200 µg/mL	50 µg/mL	200 µg/mL	200 µg/mL	200 µg/mL	200 µg/mL	0.8 µg/mL	> 200 µg/mL	> 200 µg/mL	0.8 µg/mL	MIC (Escherichia coli NIHJ): < 1.57 µg/mL; MIC (Klebsiella pneumoniae [2]): > 200 µg/mL; MIC (Pseudomonas aeruginosa; clinical isolate GN 2987): 50 µg/mL; MIC (Escherichia coli; clinical isolate GN 3611): > 200 µg/mL; MIC (Staphylococcus aureus; clinical isolate F-5): > 200 µg/mL; MIC (Staphylococcus aureus; clinical isolate MS 8619): 0.79 µg/mL; Relative activity (β-lactamase): 116%; MIC (Klebsiella pneumoniae [4]; clinical isolate GN 917): > 200 µg/mL; MIC (Klebsiella pneumoniae [4]; clinical isolate GN 4081): > 200 µg/mL; MIC (Klebsiella pneumoniae [4]; clinical isolate GN 4117): > 200 µg/mL; MIC (Proteus morganii): 0.4 µg/mL; MIC (Proteus rettgeri): > 200 µg/mL
CCCCCCCCN1CCN(C(=O)N[C@@H](C(=O)N[C@@H]2C(=O)N3[C@@H]2SC(C)(C)[C@@H]3C(=O)O)c2ccccc2)C(=O)C1 [compound 16]	< 1.57 µg/mL	< 1.57 µg/mL	12.5 µg/mL (≈ 21.3 µM)	6.25 µg/mL (≈ 10.6 µM)	12.5 µg/mL (≈ 21.3 µM)	25 µg/mL (≈ 42.5 µM)	25 µg/mL (≈ 42.5 µM)	25 µg/mL (≈ 42.5 µM)	25 µg/mL (≈ 42.5 µM)	12.5 µg/mL (≈ 21.3 µM)	12.5 µg/mL (≈ 21.3 µM)	12.5 µg/mL (≈ 21.3 µM)	12.5 µg/mL (≈ 21.3 µM)	25 µg/mL (≈ 42.5 µM)	50 µg/mL (≈ 85.1 µM)	25 µg/mL (≈ 42.5 µM)	0.8 µg/mL (≈ 1.36 µM)	12.5 µg/mL (≈ 21.3 µM)	50 µg/mL (≈ 85.1 µM)	1.56 µg/mL (≈ 2.65 µM)	MIC (Escherichia coli NIHJ): < 1.57 µg/mL; MIC (Salmonella typhi; clinical isolate SL 819): 3.13 µg/mL (≈ 5.33 µM); MIC (Salmonella typhi; clinical isolate SL 2169): 1.57 µg/mL (≈ 2.67 µM); MIC (Shigella sonnei): 6.25 µg/mL (≈ 10.6 µM); MIC (Shigella flexneri; clinical isolate JS 11215): 6.25 µg/mL (≈ 10.6 µM); MIC (Shigella flexneri; clinical isolate JS 11839): 0.79 µg/mL (≈ 1.34 µM); MIC (Salmonella typhi-murium; clinical isolate SL 858): 1.57 µg/mL (≈ 2.67 µM); MIC (Salmonella typhi-murium; clinical isolate SL 2136): 100 µg/mL (≈ 170 µM); MIC (Staphylococcus aureus; clinical isolate F-1): 6.25 µg/mL (≈ 10.6 µM); MIC (Staphylococcus aureus; clinical isolate F-2): 0.79 µg/mL (≈ 1.34 µM); MIC (Staphylococcus aureus; clinical isolate F-4): 6.25 µg/mL (≈ 10.6 µM); MIC (Staphylococcus aureus; clinical isolate F-5): 100 µg/mL (≈ 170 µM); MIC (Staphylococcus aureus; clinical isolate MS 8619): < 0.4 µg/mL; MIC (Klebsiella pneumoniae [4]; clinical isolate GN 917): 12.5 µg/mL (≈ 21.3 µM); MIC (Klebsiella pneumoniae [4]; clinical isolate GN 4081): 25 µg/mL (≈ 42.5 µM); MIC (Klebsiella pneumoniae [4]; clinical isolate GN 4117): 25 µg/mL (≈ 42.5 µM); MIC (Proteus morganii): 1.56 µg/mL (≈ 2.65 µM); MIC (Proteus rettgeri): 6.25 µg/mL (≈ 10.6 µM)
CC1(C)S[C@@H]2[C@H](NC(=O)C(c3ccccc3)S(=O)(=O)O)C(=O)N2[C@H]1C(=O)O (some centres unmarked) [Sodium Sulbenicillin, SodiumSulbenicillin, reference compound]	3.13 µg/mL	0.79 µg/mL	50 µg/mL	50 µg/mL	50 µg/mL	25 µg/mL	50 µg/mL	50 µg/mL	100 µg/mL	50 µg/mL	100 µg/mL	50 µg/mL	100 µg/mL	100 µg/mL	100 µg/mL	100 µg/mL	< 0.4 µg/mL	> 200 µg/mL	> 200 µg/mL	0.79 µg/mL	MIC (Klebsiella pneumoniae [2]): > 200 µg/mL; MIC (Pseudomonas aeruginosa; clinical isolate GN 2987): 25 µg/mL; MIC (Escherichia coli; clinical isolate GN 3452): 12.5 µg/mL; MIC (Escherichia coli; clinical isolate GN 3481): 12.5 µg/mL; MIC (Escherichia coli; clinical isolate GN 3611): > 200 µg/mL; MIC (Escherichia coli; clinical isolate K-2): 12.5 µg/mL; MIC (Staphylococcus aureus; clinical isolate F-2): 3.13 µg/mL; MIC (Staphylococcus aureus; clinical isolate F-5): > 200 µg/mL; MIC (Staphylococcus aureus; clinical isolate MS 8588): 3.13 µg/mL; MIC (Staphylococcus aureus; clinical isolate MS 8596): 3.13 µg/mL; MIC (Staphylococcus aureus; clinical isolate MS 8619): 3.13 µg/mL; MIC (Staphylococcus aureus; clinical isolate MS 8684): 3.13 µg/mL; MIC (Staphylococcus aureus; clinical isolate MS 8713): 3.13 µg/mL; Relative activity (β-lactamase): 50%; MIC (Klebsiella pneumoniae [4]; clinical isolate GN 917): > 200 µg/mL; MIC (Klebsiella pneumoniae [4]; clinical isolate GN 3850): > 200 µg/mL; MIC (Klebsiella pneumoniae [4]; clinical isolate GN 4081): > 200 µg/mL; MIC (Klebsiella pneumoniae [4]; clinical isolate GN 4117): > 200 µg/mL; MIC (Proteus morganii): < 0.4 µg/mL; MIC (Proteus rettgeri): > 200 µg/mL
